For series [1] the following is noted: for Total/HDL: baseline 2.9; for Alkaline phosphatase: baseline 44; for HDL: baseline 64; for Triglycerides: baseline 85; for Glucose: baseline 95; for Cholesterol: baseline 184; for Platelets: baseline 359. The text has this:
METHOD EXAMPLE. Blood chemistry. […] Prior to the start of dosing, a baseline blood draw is obtained for hematology, chemistry, CRP measurement, and metabolite analyses. After the start of dosing, blood draws are obtained monthly.

Series [2] deals with CRP. Put plainly: Blood chemistry of a human volunteer: CRP. It is filed as in vivo. The note with it: for CRP: 1,000 mg Ca-AKG + 900 mcg Vitamin A daily, oral, baseline 4.9. The text has this: METHOD EXAMPLE. Blood chemistry. […] The following results were obtained:
For series [3], the system named is inflammatory cytokines. As to conditions: female mice, 29 months. The procedure: METHOD EXAMPLE. Cytokine Levels in Aged Mice. Female mice (18 months) are divided into treatment and untreated groups. Baseline levels of 30 inflammatory cytokines are measured. […] Following treatment, levels of 30 inflammatory cytokines are measured from serum samples and compared to untreated controls.

[4] abbreviates: compared to aged controls, p<0.05.

SMILES strings stand for the structures. Where two headings read alike, the source gives them in different places.

As to `O=C(O)CCC(=O)C(=O)O` [AKG, 2-oxopentanedioic acid], in series [1] (human volunteer, vs baseline), the levels of triglycerides result was “improves” and the “other important biological markers, such as platelets, glucose, PSA” value is “does not adversely affect”. Besides, the “lowering of CRP” value in series [2] (human volunteer, baseline vs 12 months) is reported as “more than 10 fold”.

In series [1] (10 Months), `O.O=C([O-])CCC(=O)C(=O)[O-].[Ca+2]` [Ca-AKG, calcium alpha-ketoglutarate monohydrate] displayed a Total/HDL of 2.4, an Alkaline phosphatase of 40 U/L, an HDL of 76 mg/dL and a Triglycerides of 49 mg/dL. In series [1] (10 Months), this compound showed a Glucose of 104 mg/dL, a Cholesterol of 184 mg/dL and a Platelets of 392 K/CUMM. In series [1] (12 Months), the Total/HDL amounted to 2.4, the Alkaline phosphatase is reported as 30 U/L, the HDL worked out at 76 mg/dL and the Triglycerides was determined as 52 mg/dL. In series [1] (12 Months), the Glucose came out at 99 mg/dL, the Cholesterol is given as 181 mg/dL and the Platelets was 332 K/CUMM. Further, in series [3] (setting [4]), the “level of IL-3” value is recorded as “significantly lower”, the “level of IL-7” value is listed as “significantly lower”, the “level of MIP-1β” value is reported as “significantly lower” and the “level of TNF-α” value is “significantly lower”. In series [3] (treatment group vs 18 month baseline), the “levels of IL-3, IL-7, TNF-α, and MIP-1β compared to the 18 month baseline” value is “statistically indistinguishable”. Also, the CRP in series [2] (10 Months) was 2.5 mg/L. For the same compound, the CRP in series [2] (12 Months) is given as 0.4 mg/L.

Values taken from patent US20230255912A1, “COMPOSITIONS AND METHODS FOR TREATING CRP-MEDIATED DISEASES” (Ponce de Leon Health Designated Activity Company, priority 2020, published 2023).
